Source: patent US20240366648A1, “NAD-AUGMENTATION THERAPY FOR PARKINSON'S DISEASE” (Vestlandets Innovasjonsselskap AS (VIS), priority 2021, published 2024)

Key:
NAD metabolome in PBMCs = experiment: Metabolomic analysis (LC-MS) in PBMCs; format: in vivo, human; settings: oral NR 1000 mg/day, 30 days
Description: (§1) Biological material was collected at both visits, following a minimum 6-hour fasting and within 6 hours after study drug intake for visit 2. Sampling included whole blood, serum, peripheral blood mononuclear cells (PBMCs), cerebrospinal fluid (CSF) and muscle biopsy. Lumbar puncture was performed according to standard clinical procedures to collect 10 ml CSF. Needle biopsy of the vastus lateralis muscle was performed using a Bard Magnum biopsy gun (BD©, United States) and 12G×10 cm biopsy needles. Muscle biopsies were immediately dissected to remove any non-muscle tissue (e.g., fat or fascia) and snap-frozen in liquid nitrogen.
Standard substances of all the targeted compounds were used to prepare stock standard solutions and these solutions were mixed and diluted to make serially diluted standard solutions in an internal standard solution containing 11 isotope-labeled compounds (NAD-13C5, NADH-d5, nicotinamide riboside-d4, nicotinic-d4 acid, nicotinic acid-d4 riboside, AMP-15N5, ATP-13C10, nicotinamide-d4, 1-methylnicotinamide-d3, adenosine-13C5 and GTP-13C10) in a concentration range of 0.0002 to 20 nmol/mL. […] For metabolomic analyses in PBMCs, several aliquots of one sample were thawed on ice, centrifuged (10 min, 350×g, 4° C.), resuspended in ice-cold PBS and counted on a countess II cell counter. […]
For UPLC-MRM/MS, 10 μL aliquots of each standard solution and each sample solutions were injected to run LCMRM/MS either on a Waters Acquity UPLC coupled to a Sciex QTRAP 6500 Plus mass spectrometer with (−) ion detection or ESI or on an Agilent 1290 UHPLC system coupled to an Agilent 6495B QQQ mass spectrometer with (+) ion detection. […] Concentrations of individual metabolites detected in each sample were calculated by constructing linear-regression curves of individual metabolites with the analyte-to-internal standard peak area ratios (As/Ai) of standard solutions in each set of LC-MS runs and then by interpolating the calibration curves with the as/Ai values measured from injections of sample solutions in an appropriate concentration range for each compound. […]

[1] = tested on: nigrostriatal degeneration or denervation (DAT loss); experiment: Follow-up DAT-scan of phase I participants (Example 4); format: in vivo, human
Source text: In the study of the present Example 4, […] of the participants from the study of Example 2 (9 receiving placebo and 11 receiving NR) were examined by a second DAT-scan 1-1.5 year after the completion of the study, for entry into the study of Example 3. […] FIG. 15 represents box plots showing the change (delta) of the DAT-scan tracer uptake in the posterior putamen between the second and first examination (delta=scan2−scan1). […] The data is normally distributed (Shapiro-Wilk normality test).

individuals with PD = experiment: Phase II trial, brain MRI at baseline and week 52 (Example 3); format: in vivo, human; settings: 80 individuals who completed 52 weeks (1000 mg NR or placebo, blinded)
Description: To further test NR as a neuroprotective therapy for PD, and in particular to assess NR in delaying nigrostriatal degeneration or denervation, and clinical disease progression in patients with early PD, a multi-centre phase II randomized double-blinded clinical trial is performed, comparing NR to placebo in individuals with early stage PD.
Each capsule of NR contains 250 mg of NR. Patients are administered orally 2 capsules (each 250 mg) two times a day (1000 mg daily total) for the duration of the study (52 weeks). Placebo capsules are administered similarly (2 capsules two times a day). The study medication is to be taken every day during the treatment period, including prior to study visits and imaging.
The present study is a randomized, double-blind phase 11 trial, where a total of 400 individuals with PD receive 1000 mg NR or placebo for a period of 52 weeks. Extensive medical testing and screening, including brain MRI, is performed both at baseline and end-of-study (i.e., after 52 weeks of exposure). […] The therapy can therefore be considered not to be associated with an increase in glioma or brain neoplasm prevalence over the duration of treatment.

[2] = tested on: NAD metabolome in skeletal muscle; experiment: Metabolomic analysis (LC-MS) in skeletal muscle biopsies; format: in vivo, human; settings: oral NR 1000 mg/day, 30 days
Description: as §1
Standard substances of all the targeted compounds were used to prepare stock standard solutions and these solutions were mixed and diluted to make serially diluted standard solutions in an internal standard solution containing 11 isotope-labeled compounds (NAD-13C5, NADH-d5, nicotinamide riboside-d4, nicotinic-d4 acid, nicotinic acid-d4 riboside, AMP-15N5, ATP-13C10, nicotinamide-d4, 1-methylnicotinamide-d3, adenosine-13C5 and GTP-13C10) in a concentration range of 0.0002 to 20 nmol/mL. Muscle tissues were added with water at 2.5 μL/mg raw material and then homogenized on an MM 400 mixer mill for 1 min twice. Methanol at 7.5 μL/mg raw material was then added and the samples were homogenized for 1 min three times. The samples were then placed at −20° C. for 2 h before centrifugation. 20 μL of the supernatant was mixed with 180 μL of the internal standard solution. The samples were then placed at 5° C. for 1 h and then centrifuged for 5 min at 21,000 g. The clear supernatants were used for LC-MS analyses. For metabolomic analyses in PBMCs, several aliquots of one sample were thawed on ice, centrifuged (10 min, 350×g, 4° C.), resuspended in ice-cold PBS and counted on a countess II cell counter. The equivalent volume of 10 Mio live cells was transferred into a new tube, centrifuged (10 min, 350×g, 4° C.), the supernatant removed, and the pellet immediately frozen on dry ice. Each PBMC sample was made into 75% methanol at a concentration of 50 μL per 1 Mio cells. After cell lysis on a MM 400 mixer mill for 1 min twice, the sample was centrifuged. 20 μL of the clear supernatant was mixed with 180 μL of the internal standard solution and was then used for LC-MS analysis.
For UPLC-MRM/MS, 10 μL aliquots of each standard solution and each sample solutions were injected to run LCMRM/MS either on a Waters Acquity UPLC coupled to a Sciex QTRAP 6500 Plus mass spectrometer with (−) ion detection or ESI or on an Agilent 1290 UHPLC system coupled to an Agilent 6495B QQQ mass spectrometer with (+) ion detection. For UPLC-(−) MRM/MS, a reversed-phase C18 LC column (2.1*100 mm, 1.8 μm) was used for LC separation, with the use of a tributylamine-ammonium acetate buffer (solvent A) and acetonitrile (solvent B) as the mobile phase for gradient elution at 50° C. and 0.25 mL/min. For UPLC-(+) MRM/MS, a reversed-phase C18 column (2.1*150 mm, 1.8 μm) was used for LC separation, with the use of hepatofluorobutyrate buffer (solvent A) and methanol (solvent B) as the mobile phase for gradient elution at 50° C. and 0.3 mL/min. Concentrations of individual metabolites detected in each sample were calculated by constructing linear-regression curves of individual metabolites with the analyte-to-internal standard peak area ratios (As/Ai) of standard solutions in each set of LC-MS runs and then by interpolating the calibration curves with the as/Ai values measured from injections of sample solutions in an appropriate concentration range for each compound. Sample preparation and metabolomic analyses were conducted at Creative Proteomics, NY, USA.
The between visit change ([visit 2]−[visit 1]) in MDS-UPDRS (total of subsections I-III; and individual subsections I, II and III) was compared between the NR and placebo groups using independent Student's t-test. […]

patients with ALS = settings: de la Rubia et al. 2019; cited from earlier work

NC(=O)c1ccc[n+]([C@@H]2O[C@H](CO)[C@@H](O)[C@H]2O)c1 [NR, nicotinamide riboside]
Me-Nam level in PBMCs (NAD metabolome in PBMCs): increase
NAAD level in PBMCs (NAD metabolome in PBMCs): increase
acetyl-CoA, CoA, SAM and its metabolites, energy compounds such as ATP in PBMCs (NAD metabolome in PBMCs): no significant change
progression of the DAT loss between first and second DAT-scan, NR vs placebo group ([1]; second scan 1-1.5 year after the study, posterior putamen, t-test p=0.35): no significant difference
trend in progression of nigrostriatal denervation in NR group ([1]; smaller difference between the two examinations, p=0.35): non-significant trend for decreased progression
cases of glioma or other brain neoplasms on brain MRI (individuals with PD): no cases of glioma or any other brain neoplasms
Me-2-PY level in muscle tissue after treatment [2]: strongly elevated
Me-4-PY level in muscle tissue after treatment [2]: strongly elevated
NAAD level in muscle tissue after treatment [2]: strongly elevated
Nam N-oxide level in muscle tissue after treatment [2]: strongly elevated
acetyl-CoA, CoA, SAM and its metabolites, energy compounds such as ATP in muscle [2]: no significant change
methyl-Nam (Me-Nam) level in muscle tissue after treatment [2]: strongly elevated
steady state levels of NAD (NAD+ and NADH), NAD precursors and intermediates in muscle [2]: not significantly changed
clinical effect in patients with ALS (patients with ALS): substantial clinical improvement
